Patent publication US5591763A, “treatments for diseases characterized by neovascularization” (President and Fellows of Harvard College, priority 1995, dated 1997)
“Also recorded” adds a separate entry of the source. Where two headings read alike, the source gives them in different places.

Tests used:
[1] = tested on: vascular smooth muscle cells; assay: Proliferation/growth of vascular smooth muscle cells (general statement); type: cell-based
endothelial cells = assay: Proliferation of endothelial cells (general statement); type: cell-based
Swiss 3T3 cells = assay: Proliferative response to mitogens released from MAC-treated endothelial cells, 3T3 cells; type: cell-based; settings: 10 μM CLT; quiescent 3T3 cells; conditioned media from MAC treated EC; FIG. 5
Method: (§1) CLT inhibits the mitogenic activity released from endothelial cells by activated component. When endothelial cells (EC) in culture (both BAEC and HUVEC) are treated with terminal complement components to form the MAC (membrane attack complex of complement), they release into the culture medium a potent mitogenic activity that stimulates the proliferation of quiescent cells used as indicators of the mitogens. Both, quiescent Swiss 3T3 and vascular smooth muscle cells are stimulated by the mitogens released form EC in response to the MAC (FIG. 5; Halperin et al. unpublished observation). Moreover, immunoprecipitation with specific antibodies has documented that both PDGF and bFGF released from the EC contribute in approximately equal proportion to the mitogenic activity induced by the MAC (data not shown).
(§2) To determine whether CLT inhibited the cell proliferative activity released by the MAC from EC, quiescent 3T3 and vascular smooth muscle cells were stimulated in the presence and absence of 10 μM CLT with conditioned media obtained from MAC treated EC.

[2] = molecular target: T1, Ca^++ activated K channel of human erythrocytes (Homo sapiens, UniProt O15554); assay: Inhibition of Ca++ activated K channel of human erythrocytes, K efflux; type: biochemical; settings: 60 μmol A23187/L cell, 100 μM CaCl2
T1 construct: Preparation of Human Red Blood Cells: Blood is collected in heparinized tubes; endogenous in cells; host or cells: washed human erythrocytes (red blood cells from heparinized blood)
Description: Ca^++ -sensitive K+ channels have wide distribution among cells, including the human red cell where they were originally discovered and which is the most commonly utilized assay system for activators and inhibitors of the channel for the following reasons: they are readily available, can be easily manipulated in the laboratory, and transport assays can be accurately standardized by reading the hemoglobin concentration of a red cell suspension.
Preparation of Human Red Blood Cells: Blood is collected in heparinized tubes and centrifuged in a Sorvall centrifuge (RB 5B, Du Pont Instruments,Newtown, Conn.) at 5° C. for 10 minutes at 3000 g. Plasma and buffy coat are carefully removed and the cells washed four times with a washing solution containing 150 mM choline chloride (Sigma Co), 1 mM MgCl2 (Sigma Co),10mM Tris-MOPS (Sigma, Calif.), pH 7.4 at 4° C.(CWS). An aliquot of cells is then suspended in an approximately equal volume of CWS, and from this original cell suspension hematocrit (Hct) and hemoglobin (optical density at 540 nm) are determined. […]
(§3) The inhibitory effect of (CLT) on the Ca^++ activated K channel of human erythrocytes was assessed in the presence of 60 μmol A23187/L cell and 100 μMCaCl2.

[3] = tested on: bovine endothelial (BAEC); assay: Cell growth (surface of culture flask covered by cell monolayer), bovine endothelial cells; type: cell-based; settings: 10 μM, 48 hs, without CLT 90±2%
Method: (§4) Measurement of cell density in culture plates: Cells of a specific test cell line are seeded at precisely the same low density in culture plates and incubated for approximately 12 hours in DME 10% serum, or other culture medium depending on the cell line tested. […] Alternatively, the cells can be detached from the plate by incubation with trypsin (Sigma, Co.) […] in ethylene diaminotetraacetic acid (ECTA; Sigma, Co); then the cells are counted in an hemocytometer chamber (Fisher, Pittsburgh, Pa.).
(§5) Bovine endothelial (BAEC) and human umbilical vein (HUVEC): Cells were seeded at a low density (2.5×10^5) in cell culture flasks (75 ml flasks) containing DME 10% calf serum (BAEC) or fetal calf serum (HUVEC); after 12 hs, when the cells were attached to the surface of the flasks, CLT (10 μM) or carrier (ethanol) were added to triplicate flasks. After 48 hs cell growth was assessed by optic miscroscopy calculating the surface of the culture flask covered by the cell monolayer.

[4] = tested on: rat vascular smooth muscle cells; assay: cells; type: cell-based
Method: DNA synthesis assessed by the uptake of [3H]thymidine: Cells are grown in either 48 or 96 wells plates (Costar, Cambridge, Mass.) at 104 and 0.8 10^3 cells per well, respectively, and grown in Dubelcco's modified Eagle's medium (DME, Gibco, Grand Island, N.Y.) supplemented with 10% heat-inactivated calf serum; they are kept at 37° C. in 5% CO2. When they reach confluence, usually between 3 and 4 days, the medium is replaced with DME 0.5% serum to make them quiescent, and mitogenesis assays are performed 24 hours later.
Quiescent cells are exposed to a mitogenic stimulus, such as 10% serum, PDGF (Sigma Co. St. Louis, Mo.), bFGF (Upstate Biotechnologies, Lake Placid, N.Y.), or other appropriate mitogen according to the cell line, and 3 hours later 1 μCi/ml of [3H]thymidine (Dupont, Billerica, Mass. ) is added to the wells, and the cells maintained at 37° C./5% CO2 for additional 21 hours. Then the cells are washed 3 times with DME medium and the acid-precipitable radioactivity is extracted with cold 10% TCA (Sigma, Co). After neutralization with 0.3 N NaOH (Sigma Co.), aliquots are counted in a Packard Tri-Carb Scintillation counter (Packard Instrument, Downer's Grove, Ill.).
Rat vascular smooth muscle cells (murine cell line): Quiescent cells were stimulated with purified growth factors (PDGF and bFGF, […]) and synthesis of DNA was assessed by the incorporation of [3H]thymidine measured 24 hours later.
Cells were stimulated using […] bFGF. […] (FIG. 2)
Other antimycotics were tested for their inhibition of bFGF-stimulated DNA synthesis in rat vascular smooth muscle cells.

[5] = tested on: human umbilical vein (HUVEC); assay: Cell growth (surface of culture flask covered by cell monolayer), human umbilical vein cells; type: cell-based; settings: 10 μM, 48 hs, without CLT 90±2%
Method: as §4, §5

[6] = tested on: vascular smooth muscle cells; assay: Proliferative response to mitogens released from MAC-treated endothelial cells, vascular smooth muscle cells; type: cell-based; settings: 10 μM CLT; quiescent vascular smooth muscle cells; conditioned media from MAC treated EC; FIG. 5
Method: as §1, §2

[7] = molecular target: T1, Ca^++ activated K channel of human erythrocytes; assay: Inhibition of Ca++ activated K channel of human erythrocytes, 86Rb influx; type: biochemical; settings: for Order of inhibitory potency, Ca++ activated 86Rb influx / Inhibition of Ca++ activated 86Rb influx by other antimycotics: human erythrocytes; for Inhibition of Ca++ activated 86Rb influx by other antimycotics: FIG. 4
Method: Preparation of Human Red Blood Cells: Blood is collected in heparinized tubes and centrifuged in a Sorvall centrifuge (RB 5B, Du Pont Instruments,Newtown, Conn.) at 5° C. for 10 minutes at 3000 g. Plasma and buffy coat are carefully removed and the cells washed four times with a washing solution containing 150 mM choline chloride (Sigma Co), 1 mM MgCl2 (Sigma Co),10mM Tris-MOPS (Sigma, Calif.), pH 7.4 at 4° C.(CWS). An aliquot of cells is then suspended in an approximately equal volume of CWS, and from this original cell suspension hematocrit (Hct) and hemoglobin (optical density at 540 nm) are determined.
Methods to Test Inhibitors of the Ca^++ Activated K channel: To test inhibitors of the Ca^++ activated K channel, the channel is activated using the calcium ionophore A23187 (Calbiochem).
By radioisotopic measurement of ^86 Rb influx. The incubation medium is the same but contains 2 mM KCl and 1 μCi/ml of the radioactive tracer ^86 Rb. After spinning the samples through the phthalate layer, the tubes are rapidly frozen (-80° C.) by immersion in methanol-dry ice, the tips of the tubes containing the packed red cells cut, and counted in a Packard Gamma Counter.
as §3
Other antimycotics were tested for their inhibition of the Ca++ activated 86Rb influx human erythrocytes.

epidermal cells = assay: Growth of epidermal cells (general statement); type: cell-based
[8] = hormonal adjuvant for prostate cancer; cited from earlier work
17-20 desmolase = settings: cited from earlier work
[9] = tested on: 21- and/or 11-hydroxylase; settings: cited from earlier work
17-hydroxylase = settings: cited from earlier work

N=C(N)NC(=O)c1nc(Cl)c(N)nc1N [amiloride]
Inhibition of proliferation/growth of vascular smooth muscle cells [1]: do not inhibit cell proliferation
Inhibition of proliferation of endothelial cells (endothelial cells): do not inhibit cell proliferation

Clc1ccccc1C(c1ccccc1)(c1ccccc1)n1ccnc1 [clotrimazole]
Inhibition of proliferative response to mitogens released from EC (Swiss 3T3 cells): completely inhibited
Inhibition of Ca^++ activated K efflux [2]: markedly inhibited
Flask surface covered by cells in the presence of CLT [3]: less than 10%
Dose response of inhibition of DNA synthesis [4]: dose dependent
Inhibition of DNA synthesis [4]: complete inhibition
Inhibition of PDGF stimulated DNA synthesis [4]: completely inhibited
Inhibition of bFGF stimulated DNA synthesis [4]: completely inhibited
Inhibition of bFGF-stimulated DNA synthesis [4]: inhibited DNA synthesis
Order of inhibitory potency, bFGF-stimulated DNA synthesis [4]: CLT more potent than ECZ
Reversibility of the inhibition of DNA synthesis [4]: reversed by removing CLT
inhibition at 1 µM ([4]; Rattus norvegicus, read-out: Inhibition of DNA synthesis): 45%
Flask surface covered by cells in the presence of CLT [5]: less than 10%
Inhibition of proliferative response to mitogens released from EC [6]: completely inhibited
Inhibition of Ca^++ activated 86Rb influx ([7]; 60 μmol A23187/L cell, 100 μM CaCl2): markedly inhibited
Order of inhibitory potency, Ca++ activated 86Rb influx [7]: clotrimazole more than miconazole

Clc1ccc(COC(Cn2ccnc2)c2ccc(Cl)cc2Cl)cc1 (stereo not drawn) [econazole]
Order of inhibitory potency, bFGF-stimulated DNA synthesis ([4]; 10 μM, FIG. 3): ECZ more potent than MCZ
Inhibition of bFGF-stimulated DNA synthesis ([4]; antimycotics at 10 μM, FIG. 3): inhibited DNA synthesis
Order of inhibitory potency, Ca++ activated 86Rb influx [7]: both of these were more than econazole

OC(Cn1cncn1)(Cn1cncn1)c1ccc(F)cc1F [fluconazole]
Inhibition of Ca++ activated 86Rb influx by other antimycotics [7]: no inhibition

CC(=O)N1CCN(c2ccc(OCC3COC(Cn4ccnc4)(c4ccc(Cl)cc4Cl)O3)cc2)CC1 (stereo not drawn) [ketoconazole]
Inhibition of growth of epidermal cells (epidermal cells): ineffective
Inhibition of proliferation/growth of vascular smooth muscle cells [1]: not useful for inhibiting; also recorded: ineffective
Plasma testosterone reduction [8]: reduces plasma testosterone to castration levels
Inhibition of 17-20 desmolase (17-20 desmolase): inhibition
Inhibition of 21- and/or 11-hydroxylase [9]: marked inhibition
Inhibition of proliferation of endothelial cells (endothelial cells): not useful for inhibiting
Blockade of 17-hydroxylase (17-hydroxylase): partial blockade

Cc1ncc([N+](=O)[O-])n1CCO [metronidazole]
Inhibition of Ca++ activated 86Rb influx by other antimycotics [7]: only marginal

Clc1ccc(COC(Cn2ccnc2)c2ccc(Cl)cc2Cl)c(Cl)c1 (stereo not drawn) [miconazole]
Order of inhibitory potency, bFGF-stimulated DNA synthesis ([4]; 10 μM, FIG. 3): ECZ more potent than MCZ
Inhibition of bFGF-stimulated DNA synthesis ([4]; antimycotics at 10 μM, FIG. 3): inhibited DNA synthesis
Order of inhibitory potency, Ca++ activated 86Rb influx [7]: both of these were more than econazole

Cc1ncc([N+](=O)[O-])n1CC(O)CCl (stereo not drawn) [ornidazole]
Inhibition of Ca++ activated 86Rb influx by other antimycotics [7]: no inhibition

C[C@@H]1O[C@@H](O[C@H]2C[C@@H](O)[C@]3(CO)[C@H]4[C@H](O)C[C@]5(C)[C@@H](C6=CC(=O)OC6)CC[C@]5(O)[C@@H]4CC[C@]3(O)C2)[C@H](O)[C@H](O)[C@H]1O [ouabain]
Inhibition of proliferation/growth of vascular smooth muscle cells [1]: do not inhibit cell proliferation
Inhibition of proliferation of endothelial cells (endothelial cells): do not inhibit cell proliferation

CCS(=O)(=O)CCn1c([N+](=O)[O-])cnc1C [tinidazole]
Inhibition of Ca++ activated 86Rb influx by other antimycotics [7]: no inhibition

charybdotoxin
Inhibition of DNA synthesis by other inhibitors of the Ca^++ activated K channel ([4]; FIG. 3): failed to inhibit DNA synthesis
Inhibition of proliferation/growth of vascular smooth muscle cells [1]: do not inhibit proliferation
Inhibition of proliferation of endothelial cells (endothelial cells): do not inhibit proliferation

iberiotoxin (QFTDVDCSVSKECWSVCKDLFGVDRGKCMGKKCRCYQ; UniProt P24663 1-37, looked up)
Inhibition of DNA synthesis by other inhibitors of the Ca^++ activated K channel ([4]; FIG. 3): failed to inhibit DNA synthesis
Inhibition of proliferation/growth of vascular smooth muscle cells [1]: do not inhibit proliferation
Inhibition of proliferation of endothelial cells (endothelial cells): do not inhibit proliferation

kaliotoxin: specific inhibitor of the Ca^++ activated potassium channel
Inhibition of DNA synthesis by other inhibitors of the Ca^++ activated K channel ([4]; FIG. 3): failed to inhibit DNA synthesis
Inhibition of proliferation/growth of vascular smooth muscle cells [1]: do not inhibit proliferation
Inhibition of proliferation of endothelial cells (endothelial cells): do not inhibit proliferation
